# Test results: US11136352B2, “Immunotherapy against several tumors including neuronal and brain tumors” (IMMATICS BIOTECHNOLOGIES GMBH, priority 2008, dated 2021)
# Tested on: CD8+ T cells from HLA-A*02+ buffy coats of healthy donors
# Assay: In vitro priming of CD8+ T cells with pMHC/anti-CD28 coated beads (aAPC), tetramer readout
# Type: cell-based, human
# Details: healthy HLA-A*02+ donors; three in vitro stimulations; TUMAP-specific tetramer+ CD8+ T cells
# Protocol: To perform in vitro stimulations by artificial antigen presenting cells (aAPC) loaded with peptide-MHC complex (pMHC) and anti-CD28 antibody, first we isolated PBMCs (peripheral blood mononuclear cells) from fresh HLA-A*02+ buffy coats by using standard density gradient separation medium (PAA, Cölbe, Germany). Buffy coats were either obtained from the Blood Bank Tubingen or from the Katharinenhospital Stuttgart. Isolated PBMCs were incubated overnight in T-cell medium (TCM) for human in vitro priming consisting of RPMI-Glutamax (Invitrogen, Karlsruhe, Germany) supplemented with 10% heat inactivated human AB serum (PAA, Cölbe, Germany), 100 U/ml Penicillin/100 μg/ml Streptomycin (Cambrex, Verviers, Belgium), 1 mM sodium pyruvate (CC Pro, Neustadt, Germany) and 20 μg/ml Gentamycin (Cambrex). CD8+ lymphocytes were isolated using the CD8+ MACS positive selection kit (Miltenyi, Bergisch Gladbach, Germany) according to the manufacturer's instructions. […] 800.000 beads/200 μl were coated in 96-well plates in the presence of 600 ng biotin anti-CD28 plus 200 ng relevant biotin-pMHC (high density beads) or 2 ng relevant plus 200 ng irrelevant (pMHC library) MHC (low density beads). Stimulations were initiated in 96-well plates by co-incubating 1×10^6 CD8+ T cells with 2×10^5 washed coated beads in 200 μl TCM supplemented with 5 ng/ml IL-12 (PromoCell) for 3-4 days at 37° C. Half of the medium was then exchanged by fresh TCM supplemented with 80 U/ml IL-2 and incubating was continued for 3-4 days at 37° C. This stimulation cycle was performed for a total of three times. […] Peptide specific cells were calculated as percentage of total CD8+ T cells. Evaluation of tetrameric analysis was done using the software FCS Express (De Novo Software). In vitro priming of specific tetramer+CD8+ lymphocytes was detected by appropriate gating and by comparing to negative control stimulations.
Molecule,Positive donors/donors tested [%],Positive wells/wells tested [%]
"SLNELRVLL (listed as Homo sapiens) [CLIP2-001, HLA-A*02 peptide from CLIP2]",75,6
"QLLAGVFLA (listed as Homo sapiens) [TNC-002, HLA-A*02 peptide from TNC]",50,14
"TLVGIIVGV (listed as Homo sapiens) [PDPN-001, HLA-A*02 peptide from PDPN]",60,11
"NLDTLMTYV (listed as Homo sapiens) [NLGN4X-001, HLA-A*02 peptide from NLGN4X]",100,62
"ALWAWPSEL (listed as Homo sapiens) [BCA-002, HLA-A*02 peptide from BCAN]",75,35
"LTFGDVVAV (listed as Homo sapiens) [FABP7-001, HLA-A*02 peptide from FABP7]",100,27
"FLGDPPEKL (listed as Homo sapiens) [BCA-001, HLA-A*02 peptide from BCAN]",60,5
"YLIAGIISL (listed as Homo sapiens) [SLCO1C1-001, HLA-A*02 peptide from SLCO1C1]",60,7
"GLWHHQTEV (listed as Homo sapiens) [NRCAM-001, HLA-A*02 peptide from NRCAM]",86,39
"AMTQLLAGV (listed as Homo sapiens) [TNC-001, HLA-A*02 peptide from TNC]",60,30
"GLQSQIAQV (listed as Homo sapiens) [NES-001, HLA-A*02 peptide from NES]",75,38
"KIQEILTQV (listed as Homo sapiens) [IGF2BP3-001, HLA-A*02 peptide from IGF2BP3]",50,21
CSCC[C@H](NC(=O)[C@@H](N)[C@@H](C)O)C(=O)N[C@@H](CC(C)C)C(=O)N[C@@H](C)C(=O)N[C@@H](CCCNC(=N)N)C(=O)N[C@@H](CC(C)C)C(=O)N[C@@H](C)C(=O)N[C@@H](CO)C(=O)N[C@@H](C)C(=O)O [CSP-001],100,57

# Tested on: precursor T cells of glioblastoma patients
# Assay: In vitro immunogenicity in a small number of glioblastoma patients
# Type: cell-based, human
# Details: compared with healthy donors
row,Molecule,Immunogenicity in glioblastoma patients
1,"NLDTLMTYV (listed as Homo sapiens) [NLGN4X-001, HLA-A*02 peptide from NLGN4X]",immunogenic to a similar extent compared with healthy donors
2,"ALWAWPSEL (listed as Homo sapiens) [BCA-002, HLA-A*02 peptide from BCAN]",immunogenic to a similar extent compared with healthy donors

# Tested on: granzyme B-secreting CTLs
# Assay: not given
# Details: type 1 diabetic patients and antibody-positive relatives compared with healthy donors; cited from earlier work
row,Molecule,Reactivity of granzyme B-secreting CTLs
1,"NLAQDLATV (listed as Homo sapiens) [GFAP-001, HLA-A*02 peptide from GFAP]",enhanced reactivity
